Patent US9435795B2, “Enhanced deposition of chromogens utilizing pyrimidine analogs” (Ventana Medical Systems, Inc., priority 2010, dated 2016)
In brackets after ≈: the same amount, converted by molar mass. Several values for one entry are separate records, joined by “and”; a condition that tells them apart may be missing. Equal entries are not always repeated. Where two headings read alike, the source gives them in different places.

Assays:
[1] = biological target: T1, horseradish peroxidase (HRP) (Armoracia rusticana, UniProt P00433); test: Plate assay: kinetic screening of enhancers of HRP-mediated DAB oxidation (ultraView Detection Kit, OD 455 nm); format: biochemical; details: for Percent increase of apparent Vmax of HRP: relative to uView Vmax without enhancement
T1 construct: purchased VMSI (Ventana Medical Systems, Inc.) 760-500: 253-4290, 253-4292 and 253-4293
Procedure: The additives were directly added to a well containing the necessary reagents from the ultraView™ Detection Kit (VMSI 760-500: 253-4290, 253-4292 and 253-4293) in 1× Reaction Buffer (VMSI 950-300) and 0.1% fish gelatin. Fish gelatin was used to help disperse the oxidized DAB and inhibit its precipitation from solution. The ultraView™ Detection Kit was diluted to measure the formation of oxidized DAB by UV-VIS at 455 nm. Additives were tested at set concentrations to determine enhancement in the DAB oxidation reaction. The data were graphed, and the apparent maximum velocity (Vmax) was calculated at each additive concentration level.

ultraView HRP multimer = biological target: T2, ultraView HRP multimer (Armoracia rusticana, UniProt P00433); test: Michaelis-Menten kinetics of HRP-oxidized DAB with enhanced DAB chromogen mixtures; format: biochemical, horseradish
T2 construct: purchased Ventana Medical Systems (ultraView kit component)
T2 sequence (P00433 31-338 limits assumed): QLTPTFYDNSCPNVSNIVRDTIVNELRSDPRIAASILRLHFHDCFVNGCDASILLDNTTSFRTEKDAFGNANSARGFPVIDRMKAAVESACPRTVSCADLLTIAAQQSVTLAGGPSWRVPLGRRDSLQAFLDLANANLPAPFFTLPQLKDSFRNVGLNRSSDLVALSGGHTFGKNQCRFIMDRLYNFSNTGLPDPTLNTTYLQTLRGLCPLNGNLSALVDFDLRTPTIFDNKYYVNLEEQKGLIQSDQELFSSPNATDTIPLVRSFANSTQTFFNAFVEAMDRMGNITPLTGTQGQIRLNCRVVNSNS
Procedure: To further study the synergistic effect in the increased apparent Vmax for HRP-oxidized DAB, Michaelis-Menten kinetics were calculated for the best enhanced DAB chromogen mixtures in Table 3. […] The definition of Vmax=kcat·[E]total when the enzyme substrate concentration was at saturation levels. When the concentration of enzyme was kept constant, the apparent Vmax is proportional to kcat (the apparent turnover for HRP or the first order rate constant).

[2] = biological target: T1, horseradish peroxidase (HRP); test: Plate assay: enhancers added sequentially to ultraView Detection Kit (synergistic/antagonistic effects); format: biochemical; details: for Effect on apparent velocity of HRP when added to a preceding assay mixture of Table 2: NMO added to mixture 4, 50 mM L-histidine or 10 mM pyrimidine added to mixture 5
Procedure: The same concentration of reagents from the ultraView™ Detection Kit (VMSI 760-500: 253-4290, 253-4292 and 253-4293) were used in 1× Reaction Buffer™ containing 0.1% fish gelatin for each trial. In each trial, the enhancers were added together one at a time.

[3] = Solubility of additive in reaction buffer / aqueous buffers; format: physicochemical; details: for solubility: reaction buffer, aqueous buffer, read-out: Solubility of additive in reaction buffer at room temperature
[4] = Compatibility and stability of reformulated DAB Chromogen solution with additive; format: physicochemical
bcl2 on tonsil tissue = test: IHC staining of bcl2 on tonsil tissue with enhanced DAB chromogen solutions, pathology scoring; details: additive in DAB chromogen solution
Procedure: IHC staining was performed for bcl2 on tonsil tissue using enhanced DAB chromogen solutions to further examine enhancer synergistic effects on DAB deposition. Reader 1 performed all pathology evaluations during the same period of time.
Formalin fixed paraffin embedded tonsil tissue was mounted on Superfrost slides, deparaffinized and antigen retrieved using CC1 bulk reagent (Ventana® p/n 950-124). Following retrieval, one drop (100 μL) of UV Inhibitor (a component of the ultraView™ DAB kit) was dispensed onto a slide and incubated for 8 minutes. Following the incubation of the Inhibitor, 1 drop of the mouse anti-bcl2 (clone 124; Ventana® p/n 790-4464) was dispensed onto the slide and incubated for 16 minutes. Following 2 rinses with reaction buffer, the bcl2 antibody was detected using 1 drop of the ultraView™ universal HRP conjugate (a component of the ultraView™ DAB kit) and incubated on the slide for 8 minutes. One drop of DAB (5.5 mM DAB; 0.05% Brij® 35; plus any combination of enhancers investigated in table 3) and H2O2 were each added to the slides and incubated for 8 minutes. ultraView™ DAB was used as the reference. After rinsing the slides in reaction buffer, 100 μL of copper (component of ultraView™ DAB kit) was applied to slide for 4 minutes. Slides were counterstained using Hematoxylin II (Ventana® p/n 790-2208) and Bluing Reagent (Ventana p/n760-2037). […]

bcl2 in tonsil tissue = test: TSA-IHC tissue staining of bcl2 in tonsil tissue (TA-HQ deposition); details: 10 mM during tyramide deposition; 8 minute primary Ab incubation
Procedure: Enhanced DAB deposition was evaluated on a TSA-IHC tissue staining of bcl2 in tonsil tissue. […] Tyramide deposition was performed with and without 10 mM 2-hydroxypyrimidine. […] The percent of cells stained with DAB increased in areas with low bcl2 antigen expression. Formalin fixed paraffin embedded tonsil tissue was mounted on Superfrost slides, deparaffinized and antigen retrieved using CC1 bulk reagent (Ventana® p/n 950-124). […] Slides were counterstained using Hematoxylin II (Ventana® p/n 790-2208) and Bluing Reagent (Ventana® p/n760-2037). The slides were dehydrated using gradient alcohols, cover slipped and viewed using a bright field microscope (FIGS. 23-26).

[5] = enhancer 10 mM, no enhancer 18.50
[6] = enhancer 50 mM, no enhancer 18.50, (sat) = reaction rate saturated by start of UV-VIS analysis
[7] = enhancer 100 mM, no enhancer 18.50, (sat) = reaction rate saturated by start of UV-VIS analysis
[8] = enhancer 10 mM in 50 mM imidazole, 10 mM calcium chloride, 10 mM boric acid

Enhancement of apparent velocity of HRP-mediated DAB oxidation (in words) [1] | Vmax (apparent, HRP-oxidized DAB) [1, 5] | Vmax (apparent, HRP-oxidized DAB) [1, 6] | Vmax (apparent, HRP-oxidized DAB) [1, 7] | SMILES | also measured
increased the apparent velocity of HRP | 82.00 mOD/min | 86.00 mOD/min | 74.00 mOD/min | Cc1c[nH]c(=O)[nH]c1=O [Thymine] | 
 | 104.00 mOD/min | 124.00 mOD/min | 36.80 (sat) mOD/min | c1cncnc1 [Pyrimidine] | Vmax (ultraView HRP multimer; enhancer 50 mM in 50 mM imidazole, 10 mM calcium chloride, 10 mM boric acid): 326 mOD/min; Percent increase of apparent Vmax of HRP ([1]; enhancer 10 mM): 462%; Percent increase of apparent Vmax of HRP ([1]; enhancer 50 mM): 570%; Effect on apparent velocity of HRP when added to a preceding assay mixture of Table 2 [2]: increased the apparent velocity of HRP
 |  |  |  | [Ca+2].[Cl-].[Cl-] [Calcium Chloride] | Vmax (apparent, HRP-oxidized DAB) [1]: 43.50 mOD/min and 52.50 mOD/min and 57.00 mOD/min
 | 47.67 mOD/min | 18.19 mOD/min | 15.98 mOD/min | Oc1ccccn1 [2-Hydroxypyridine] | Vmax (ultraView HRP multimer; [8]): 383 mOD/min; Percent increase of apparent Vmax of HRP ([1]; enhancer 10 mM): 157%
 |  |  |  | CC1(C)CCCC(C)(C)N1[O] [TEMPO, 2,2,6,6-tetramethylpiperidine-1-oxyl] | Vmax (apparent, HRP-oxidized DAB) ([1]; enhancer 0.13% (8 mM)): 18.00 mOD/min; Vmax (apparent, HRP-oxidized DAB) ([1]; enhancer 0.25% (16 mM)): 24.80 mOD/min; Vmax (apparent, HRP-oxidized DAB) ([1]; enhancer 0.50% (32 mM)): 21.20 mOD/min
 | 66.40 mOD/min | 27.00 (sat) mOD/min | 27.05 (sat) mOD/min | c1cscn1 [Thiazole] | 
 | 104.00 mOD/min | 104.00 mOD/min | 36.00 mOD/min | [O-][n+]1cccnc1 [Pyrimidine-N-oxide] | Vmax (ultraView HRP multimer; [8]): 374 mOD/min; Functionality over time of DAB reformulated with additive [4]: lost functionality and stopped staining with time; DAB staining on tissue, pathological review (in words) (bcl2 on tonsil tissue): best DAB signal to background noise ratio for the two enhancers; Solubility in aqueous buffers (in words) [3]: do not have solubility or volatility problems
 | 67.47 mOD/min |  |  | OB(O)O [Boric Acid] | Percent increase of apparent Vmax of HRP ([1]; enhancer 10 mM): 265%; Percent increase of apparent Vmax of HRP ([1]; enhancer 50 mM): 592%
 |  |  |  | C[N+]1([O-])CCOCC1 [NMO, 4-methyl-morpholine N-oxide] | Vmax (apparent, HRP-oxidized DAB) ([1]; enhancer 0.13% (10.7 mM)): 33.60 mOD/min; Vmax (apparent, HRP-oxidized DAB) ([1]; enhancer 0.25% (21.3 mM)): 43.60 mOD/min; Vmax (apparent, HRP-oxidized DAB) ([1]; enhancer 0.50% (42.7 mM)): 51.60 mOD/min; Effect on apparent velocity of HRP when added to a preceding assay mixture of Table 2 [2]: antagonistic effect
no enhancement |  |  |  | CN(C)c1ccncc1 [4-dimethylaminopyridine] | 
 | 144.00 mOD/min | 156.00 mOD/min | 148.00 mOD/min | Oc1ncccn1 [2-Hydroxypyrimidine] | Vmax (ultraView HRP multimer; [8]): 320 mOD/min; Tyramide deposition in TSA-IHC staining (in words) (bcl2 in tonsil tissue): increased the tyramide deposition; Solubility in aqueous buffers (in words) [3]: do not have solubility or volatility problems
increased the apparent velocity of HRP | 36.00 mOD/min | 66.00 mOD/min |  | Nc1cc[nH]c(=O)n1 [Cytosine] | Solubility in aqueous buffers (in words) [3]: solubility problems in aqueous buffers; solubility ([3]; additive 50 mM): 10 to 50 mM (≈ 1110 to 5560 µg/mL); solubility ([3]; additive 100 mM): 10 to 100 mM (≈ 1110 to 11100 µg/mL)
no enhancement |  |  |  | CN(C)c1ccc2nc3ccc(=[N+](C)C)cc-3sc2c1 [methylene blue] | 
 | 28.80 mOD/min |  |  | c1c[nH]cn1 [Imidazole] | Vmax (ultraView HRP multimer; 10 mM buffer salt with 10 mM pyrimidine, no enhancer 228): 330 mOD/min; Vmax (ultraView HRP multimer; 50 mM buffer salt with 10 mM 2-hydroxypyrimidine (FIG. 19: also 10 mM boric acid, 10 mM calcium chloride)): 320 mOD/min; Precipitation of DAB from reformulated DAB Chromogen solution ([4]; higher concentrations of imidazole, 50 mM L-histidine): causing DAB to precipitate; DAB staining on tissue, pathological review (in words) (bcl2 on tonsil tissue): significantly increased the DAB staining intensity; Percent increase of apparent Vmax of HRP ([1]; enhancer 10 mM): 56%; Vmax (apparent, HRP-oxidized DAB), enhancers added sequentially ([2]; no enhancement 18.50): 34.00 mOD/min
 | 32.80 mOD/min |  |  | CC(=O)Nc1ccc(B(O)O)cc1 [4-AcHNPhB(OH)2, 4-acetylamidophenyl boronic acid] | Vmax (apparent, HRP-oxidized DAB) ([1]; enhancer 5 mM, no enhancer 18.50): 21.20 mOD/min; Percent increase of apparent Vmax of HRP ([1]; enhancer 10 mM): 77%; Vmax (apparent, HRP-oxidized DAB) ([1]; enhancer 20 mM, no enhancer 18.50): 32.00 mOD/min
no enhancement |  |  |  | c1ccc2[nH]cnc2c1 [Benzimidazole] | 

SMILES | Enhancement of apparent velocity of HRP-mediated DAB oxidation (in words) [1] | Vmax (apparent, HRP-oxidized DAB) [1, 5] | Vmax (apparent, HRP-oxidized DAB) [1, 6] | Vmax (apparent, HRP-oxidized DAB) [1, 7] | also measured
c1cocn1 [Oxazole] |  | 24.00 mOD/min | 40.00 mOD/min | 18.00 (sat) mOD/min | 
O=C1CC(=O)NC(=S)N1 [2-Thiobarbituric Acid] |  | 54.00 mOD/min | 56.00 mOD/min | 76.00 mOD/min | 
O=c1cc[nH]c(=O)[nH]1 [Uracil] | increased the apparent velocity of HRP | 52.00 mOD/min | 72.00 mOD/min |  | Solubility in aqueous buffers (in words) [3]: solubility problems in aqueous buffers; solubility ([3]; additive 50 mM): 10 to 50 mM (≈ 1120 to 5600 µg/mL); solubility ([3]; additive 100 mM): 10 to 100 mM (≈ 1120 to 11200 µg/mL)
N[C@@H](Cc1c[nH]c2ccccc12)C(=O)O [L-Tryptophan] |  | 30.00 mOD/min | 52.00 mOD/min | 64.00 mOD/min | 
c1ccc2c(c1)Nc1ccccc1S2 [phenothiazine] | no enhancement |  |  |  | 
